# Reference: US20240173333A1, “Treating Alagille Syndrome (ALGS)” (priority 2022, published 2024)
# Marks after values point to notes of the source that are not given here.
# Tests used:
# [1] = test system: patients with Alagille syndrome (ALGS); assay: ASSERT: ObsRO sleep parameters and daytime tiredness; type: in vivo, human
# Text: […] Additional secondary efficacy endpoints were as follows: • Change from baseline in pruritus to Month 6 (Weeks 21 to 24) as measured by the Albireo PRO instrument. • Percentage of patients achieving a clinically meaningful decrease in pruritus (pruritis responders) as measured by the ObsRO/PRO instruments. • Change from baseline through Week 24 in patient reported and observer reported itching and scratching severity scores, respectively, for the morning assessment and for the evening assessment; sleep parameters as measured with the Albireo ObsRO/PRO instruments (e.g., tiredness and number of awakenings); and PedsQL subdomain scores. • Assessment of Global Symptom Relief to from baseline to Weeks 4, 12, and 24 as measured by patient, caregiver, and clinician Global Impression of Symptoms GIS (PGIS, CaGIS, CGIS) items. • Change from baseline to Week 24 in xanthomatosis as assessed by the Clinician Xanthoma Scale; serum bile acid levels; serum ALT concentration; and serum AST concentration; gamma-glutamyl transferase concentration; total bilirubin concentration. • Change from baseline in biochemical markers and measures of bile acid synthesis (autotaxin, p-C4, only in patients >10 kg); and total cholesterol concentration.
# Itching, Scratching, and Sleep Parameters. Itching, observed scratching, and sleep disturbance were recorded twice each day via eDiary. Patients and/or caregivers were instructed to complete the eDiary every day in the morning after the patient woke and in the evening just before the patient went to sleep throughout the study. The eDiary included ObsRO and PRO items. The PRO items assessed severity of itch, aspects of sleep disturbance (morning diary only), and tiredness. The ObsRO items assessed severity of observed scratching, aspects of observed sleep disturbance (morning diary only), and signs of tiredness (evening diary only). The ObsRO and PRO scratching and itch severity items used 0 to 4 response scales.
# [2] = test system: patients with Alagille syndrome (ALGS); assay: ASSERT: Clinician Xanthoma Scale; type: in vivo, human
# Description: Clinical Assessment of Xanthoma. Changes in xanthoma as assessed by the Clinician Xanthoma Scale were measured at randomization (Study Day 1), Week 12, and Week 24/EOT visits. The clinician's assessment of the participant's xanthomatosis was focused on the number of lesions present and the degree to which the participant's lesions interfered or limited activities.
# [3] = test system: patients with Alagille syndrome (ALGS); assay: Pooled ASSERT and ASSERT-EXT: observer-reported scratching scores; type: in vivo, human; conditions: for mean scratching score: pooled
# Description: (§1) In the completed 24-week ASSERT study, patients with ALGS with history of significant pruritus and elevated serum BAs were randomized 2:1 to once-daily odevixibat 120 μg/kg or placebo, respectively. Patients who completed ASSERT could enter ASSERT-EXT, an ongoing, 72-week open-label extension study in which all patients receive odevixibat 120 μg/kg/day. This pooled analysis included all odevixibat-treated patients from ASSERT and/or ASSERT-EXT and spans from patients' first dose of odevixibat to a data cut-off of Sep. 9, 2022. Assessments over up to 36 weeks of treatment included change in observer-reported scratching scores and sleep parameters, as well as levels of serum BAs, autotaxin (a proposed meditator of pruritus), and 7 alpha-hydroxy-4-cholesten-3-one (C4; a marker of bile acid synthesis). Safety evaluations included assessment of alanine aminotransferase (ALT), total bilirubin, and treatment-emergent adverse events (TEAEs).
# [4] = test system: patients with Alagille syndrome (ALGS); assay: Pooled ASSERT and ASSERT-EXT: serum bile acids, autotaxin, C4; type: in vivo, human
# Description: as §1
# [5] = test system: patients with Alagille syndrome (ALGS); assay: Pooled ASSERT and ASSERT-EXT: sleep parameters; type: in vivo, human
# Description: as §1
# patients with ALGS = conditions: 6 patients with ALGS; 4 weeks; open-label; cited from earlier work
# [6] = test system: patients with Alagille syndrome (ALGS); assay: ASSERT pruritus responders: ObsRO sleep parameters
# Description: (§2) Treatment with concomitant medications for pruritus was permitted provided the patient was on a stable dosage for ≥4 weeks prior to enrollment that was maintained throughout the study.
# (§3) Pruritus responders were defined as patients having a ≥1-point decrease in ObsRO scratching score from baseline to weeks 21-24).
# [7] = test system: patients with Alagille syndrome (ALGS); assay: ASSERT pruritus responders: caregiver-reported PedsQL
# Description: as §2, §3
# [8] = weeks 21-24, caregiver-reported
smiles,measurement,setting,value
"CCCCC1(CCCC)CN(c2ccccc2)c2cc(SC)c(OCC(=O)N[C@@H](C(=O)N[C@@H](CC)C(=O)O)c3ccc(O)cc3)cc2S(=O)(=O)N1 [odevixibat, 1,1-dioxo-3,3-dibutyl-5-phenyl-7-methylthio-8-(N-{(R)-α-[N-((S)-1-carboxypropyl)carbamoyl]-4-hydroxybenzyl}carbamoylmethoxy)-2,3,4,5-tetrahydro-1,2,5-benzothiadiazepine]",mean reduction from baseline in daytime tiredness (5-point scale 0-4),"[1]; baseline to weeks 21 to 24, caregiver-rated",−1.1
same,"LS mean change from baseline, percent of days sleeping with caregiver",[1]; [8],−35%
same,"LS mean change from baseline, percent of days with help falling asleep",[1]; [8],−43%
same,"LS mean change from baseline, percent of days with soothing",[1]; [8],−47%
same,patients with no change from baseline to week 24 in xanthomas,"[2]; 27/35, incl. 25 patients without xanthomas at any time point",77%
same,patients showing improvements in xanthomas,"[2]; baseline to week 24, n=35",20%
same,patients whose Clinician Xanthoma Scale score increased (from 0 to 1),"[2]; baseline to week 24, n=35",3%
same,mean scratching score,"[3]; baseline, before odevixibat",2.6
same,patients with a pruritus response (≥1 point reduction from baseline in scratching score),"[3]; last assessment on odevixibat, n=37/49",76%
same,mean scratching score,"[3]; weeks 1-4, 120 μg/kg/day",1.7
same,mean scratching score,[3]; weeks 21-24,1.0
same,mean scratching score,[3]; weeks 33-36,0.6
same,mean BA level,[4]; average of weeks 20 and 24,145 µmol/L
same,mean BA level,"[4]; baseline, before odevixibat",246 µmol/L
same,mean p-C4 levels following treatment,[4]; up to 36 weeks,approached normal levels
same,mean BA level,[4]; week 4,116 µmol/L
same,mean BA level,[4]; week 36,116 µmol/L
same,"Days seeing blood due to scratching, Mean (SD) % of Days","[5]; Baseline, n=50",35% (34%)
same,"Days sleeping with caregiver, Mean (SD) % of Days","[5]; Baseline, n=50",43% (45%)
same,"Days with help falling asleep, Mean (SD) % of Days","[5]; Baseline, n=50",57% (45%)
same,"Days with soothing, Mean (SD) % of Days","[5]; Baseline, n=50",64% (43%)
same,"Days seeing blood due to scratching, Mean (SD) % of Days","[5]; Weeks 33-36, n=21",5.7% (14%)
same,"Days sleeping with caregiver, Mean (SD) % of Days","[5]; Weeks 33-36, n=21",10% (26%)
same,"Days with help falling asleep, Mean (SD) % of Days","[5]; Weeks 33-36, n=21",10% (18%)
same,"Days with soothing, Mean (SD) % of Days","[5]; Weeks 33-36, n=21",12% (25%)
same,"Days seeing blood due to scratching, Mean (95% CI) Change From Baseline to Week 33-36",[5]; n=21,"−30% (−42%, −17%)***"
same,"Days sleeping with caregiver, Mean (95% CI) Change From Baseline to Week 33-36",[5]; n=21,"−44% (−64%, −24%)***"
same,"Days with help falling asleep, Mean (95% CI) Change From Baseline to Week 33-36",[5]; n=21,"−60% (−78%, −43%)***"
same,"Days with soothing, Mean (95% CI) Change From Baseline to Week 33-36",[5]; n=21,"−59% (−77%, −40%)***"
same,"effect on sBAs, itch, and sleep disturbance",patients with ALGS,"reduced sBAs, itch, and sleep disturbance in a majority of those patients"
same,"Days seeing blood due to scratching, Baseline Mean (SE)",[6]; n=28,35 (6) %
same,"Days sleeping with caregiver, Baseline Mean (SE)",[6]; n=28,40 (9) %
same,"Days with help falling asleep, Baseline Mean (SE)",[6]; n=28,59 (8) %
same,"Days with soothing, Baseline Mean (SE)",[6]; n=28,68 (8) %
same,"Daytime tiredness, Baseline Mean (SE)","[6]; n=28, scale 0-4",2.2 (0.2)
same,"Days seeing blood due to scratching, Mean (SE) Change From Baseline",[6]; to weeks 21-24,−30 (5) %
same,"Days sleeping with caregiver, Mean (SE) Change From Baseline",[6]; to weeks 21-24,−34 (8) %
same,"Days with help falling asleep, Mean (SE) Change From Baseline",[6]; to weeks 21-24,−44 (8) %
same,"Days with soothing, Mean (SE) Change From Baseline",[6]; to weeks 21-24,−53 (8) %
same,"Days seeing blood due to scratching, Week 24 Mean (SE)","[6]; weeks 21-24, n=27",5 (2) %
same,"Days sleeping with caregiver, Week 24 Mean (SE)","[6]; weeks 21-24, n=27",8 (5) %
same,"Days with help falling asleep, Week 24 Mean (SE)","[6]; weeks 21-24, n=27",15 (6) %
same,"Days with soothing, Week 24 Mean (SE)","[6]; weeks 21-24, n=27",16 (5) %
same,"Daytime tiredness, Week 24 Mean (SE)","[6]; weeks 21-24, n=28, scale 0-4",1.0 (0.2)
same,"PedsQL total score, Baseline Mean (SE)","[7]; n=24, range 0-100",68 (3)
same,"PedsQL total score, Mean (SE) Change From Baseline","[7]; to week 24, n=23",16 (4)^c
same,"PedsQL total score, Week 24 Mean (SE)","[7]; week 24, n=25",83 (2)
